Series [1] concerns glioma cells. Conditions: Ishiuchi et al., 2002; cited from earlier work.
The conditions of series [2]: Tsai and Liang, 2001; cited from earlier work.
The test system of series [3] is rat C6 glioma cell line. Briefly: Determination of cell death by propidium iodide fluorescence (flow cytometry). Format: cell-based. Particulars: 200 μM and 400 μM TMP, 24 hours; p<0.05 vs control; FIG. 1. As to the method: (§1) The rat C6 glioma cell line was purchased from the Food Industry Research and Development Institute, Taiwan. The cell culture within the tubes was transferred into a 15 ml centrifugation tube and centrifuged at 900 rpm for 3 minutes. Resulted supernatant was removed and 4 ml 10% FBS-DMEM was added to the centrifugation tube and sufficiently mixed with the cell pellet. The cells were counted and cultured in a 24-well plate (2×10^4 cells per well) for subsequent in vitro experiments.
(§2) The cultured C6 glioma cells were treated with TMP (Fluka, F-87915) at final concentrations of 50 μM, 100 μM, 200 μM, and 400 μM for 24 hours.
The degree of damage to glioma cells was measured as the intensity of propidium iodide (PI) fluorescence. PI is a fluorescent dye that binds DNA, with an excitation wavelength of 485 nm and an emission wavelength of 620 nm. When a cell is damaged, the permeability of the cell membrane is increased and PI can enter the cell to bind DNA.
The TMP-treated glioma cells were treated with 5 ng/ml PI (Molecular Probes, P-1304) for 1 hour, and then washed with 0.1 M PBS. The intensity of PI fluorescence was read by flow cytometry (FACSort).
In general terms: In flow cytometry, cells or beads pass a laser one at a time.

Series [4] concerns rat C6 glioma cell line. Kind of series: Determination of Ca2+ permeability (Fura-2 AM, glutamate-induced Ca2+ increase). Particulars: 50 μM to 400 μM TMP, 24 hours; 200 μM glutamate for 20 seconds; p<0.05 vs control; FIG. 2. Format: cell-based. As to the method: as §1, §2
The TMP-treated glioma cells were washed with running buffer for three times, put in a 5 μM Fura-2 AM solution for 30 minutes, and treated with 200 μM glutamate for 20 seconds. The change of Ca^2+ concentration within glioma cells was observed on a fluorescence microscope (IX-70, Olympus, Japan).

The subject of series [5] is rat C6 glioma cell line. Kind of series: Determination of cell cycle (PI staining, flow cytometry). Format: cell-based. Conditions: 400 μM TMP, 24 hours; p<0.05 vs control; FIG. 3. As to the method: as §1, §2
The TMP-treated glioma cells were treated with trypsin/EDTA (Biochrom AG, L-2153), shaken off, collected in a 15 ml centrifugation tube, and centrifuged at 900 rpm for 3 minutes. The resulting supematant was removed and 1 ml PI solution (50 μg/ml PI, 0.1% sodium citrate, and 0.1% Triton X-100) was added. After one hour of dark incubation at room temperature, the intensity of PI fluorescence was read by flow cytometry (FACSort). In the G2/M phase, DNA has been replicated, and thus the intensity of PI fluorescence of cells in the G2/M phase should be two times of that of cells in the G1 phase.

For series [6], the system named is neurons. Conditions: through protecting mitochondria and inhibiting free radical generation; Shih et al, 2002; cited from earlier work.
The test system of series [7] is glioma cells implanted in frontal cortex of Sprague-Dawley rats. Briefly: Activity of glioma by micro positron emission tomography (18F-FDG). In kind it is in vivo. Particulars: 15th day following implantation; one rat; TMP from the 8th day; highly activated tumor still exists in control rat; FIG. 6 D to F. The method, then: (§3) Sprague-Dawley (S.D.) rats obtained from the Animal Center of National Yang-Ming University were kept in the following conditions: 12 hours of artificial lightening per day; 22±2° C. air conditioning; sufficient water and food. Eight-week old female rats, weighing 250 to 300 g, were used in the experiments.
(§4) The rats were anesthetized with chloride hydrate (400 mg/Kg, i.p.) and immobilized on a stereotaxic apparatus (Narishige, Japan). The skin on the head was cut with scissors to expose the skull. Bregma was found as the reference point for the location of microinjection (three-dimensional orientation point: A: 0.7 mm, L; 2.0 mm, H: 2.0 mm). The location was marked with a pen, and the skull at the location was drilled with a drill. Glioma cells (10^6 cells) were injected (2 μl/3 mins; total 10 μl) into the frontal cortex of the left brain of the rats with a microinjector.
(§5) The rats were divided into two groups. […] The rats of the TMP group received TMP treatment (0.4 mg, subcutaneous injection, twice a day) from the 8th day following the implantation. The survival days of rats of the two groups were recorded.
To determine the activity of glioma cells in the rats, the activity profiles of the tumors were obtained by micro positron emission tomography (micro PET) on the 8th and 15th day following the implantation of glioma cells. […]

The conditions of series [8]: Pang et al., 1996; cited from earlier work.
Series [9] has as its system glioma cells implanted in frontal cortex of Sprague-Dawley rats. Briefly: Survival time of rats implanted with glioma cells. In kind it is in vivo, rat. Conditions: 0.4 mg subcutaneous twice a day from the 8th day following implantation. The method, then:
as §3, §4, §5

The structures appear in SMILES notation.

Regarding `C[C@]12N[C@H](Cc3ccccc31)c1ccccc12` [MK801], the “proliferation of glioma cells” value in [1] is “can effectively inhibit the proliferation of glioma cells”.

As for `Cc1nc(C)c(C)nc1C` [TMP, tetramethylpyrazine], in series [2], the “crossing of the blood-brain barrier” value is on record as “can cross the blood-brain barrier”. In addition, the “damage to glioma cells (intensity of PI fluorescence)” value in series [3] is “resulted in glioma cell death”. In series [4], the “Ca2+ concentration within glioma cells resulting from treatment with glutamate” value is reported as “effectively reduced Ca^2+ concentration within glioma cells”. In addition, the “ratio of cells in the G2/M phase” value in [5] is “effectively reduced the ratio of cells in the G2/M phase”. The “excitotoxicity to neurons induced by kainite” value in series [6] is recorded as “can reduce the excitotoxicity to neurons induced by kainite”. Moreover, the “micro PET image of tumor activity” value in [7] was “no image of a highly activated tumor”. In series [8], the “increase of the concentration of calcium” value is on record as “can inhibit the increase of the concentration of calcium”. In addition, the “survival time following implantation, half of the rats of the TMP group” value in series [9] (FIG. 4(B)) is 40 days. The “survival time following implantation, all rats of the TMP group” value in [9] (control rats died after 15 to 22 days, FIG. 4) is listed as “at least 22 days”.

These data come from patent publication US7091205B2, “Use of tetramethylpyrazine in the treatment of brain tumor” (priority 2004, dated 2006).
